Here are results for nine molecules from ChEMBL document CHEMBL1201862, “PubChem BioAssay data set” (2004).

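The compound was tested at five concentrations on cells cultured in 96-well plates, with a 48-hour exposure period. Abbreviation: GI50, concentration required for 50% inhibition of growth.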 Calls of active or inactive are those of the source. Rule as the data show it: active = GI50 up to about 1.1 µM and inactive = higher. Bounds are passed on as bounds.

Common to all, as to assay: NCI anticancer screen, dose series, 48 h
For assay [1], the system named is MOLT-4.
Assay [2] deals with RXF 393.
The test system of assay [3] is UACC-257.
Assay [4] relates to DU-145.
Assay [5] deals with 786-0.
The test system of assay [6] is SN12C.
The subject of assay [7] is HL-60.
Assay [8] relates to MDA-MB-231.
Assay [9] concerns NCI-H460.
The subject of assay [10] is NCI-H226.
The test system of assay [11] is HCT-15.
The test system of assay [12] is SR.
The subject of assay [13] is CAKI-1.
The test system of assay [14] is M14.
Assay [15] has as its system UO-31.
The subject of assay [16] is A498.
In assay [17] the test system is SF-539.
Assay [18] deals with HCC 2998.
The test system of assay [19] is SK-MEL-2.
Assay [20] relates to OVCAR-4.

As to `O=[N+]([O-])c1ccc2nc(=S)[nH]n2c1`, the GI50 in [1], in [2], in assay [3], in assay [4], in [5] and in assay [6] was > 100 µM (inactive) each time. In addition, the GI50 in assay [7] is > 100 µM (inactive); in assay [8] it was > 100 µM (inactive); in assay [9], > 100 µM (inactive); in assay [10] it was > 100 µM (inactive); in assay [11] it was more than 100 µM; in assay [12], > 100 µM (inactive). For the same molecule, the GI50 in assay [13], in [14], in assay [15], in assay [16], in assay [17] and in assay [18] was > 100 µM (inactive) throughout. Also, the GI50 in [19] and in [20] was > 100 µM (inactive) each time.

Take `COc1ccc(NC(=S)N/N=C2\C(=O)Nc3ccccc32)cc1`: the GI50 in assay [1] was 4.93 µM (inactive); in assay [2], 9.27 µM (inactive); in assay [3], 47 µM (inactive); in [4], 13.6 µM (inactive); in assay [5], 7.55 µM (inactive); in assay [6], 40.4 µM (inactive). The GI50 in assay [7] is 2.49 µM (inactive); in assay [8], 30.9 µM (inactive); in assay [9], 3.13 µM (inactive); in [10] it was 8.97 µM (inactive); in assay [11] it was 0.984 µM; in assay [12], 8.51 µM (inactive). Moreover, the GI50 in [13] is 5.11 µM (inactive); in [14], 21.9 µM (inactive); in assay [15], 5.18 µM (inactive); in [16], 40.6 µM (inactive); in [17] it was 6.41 µM (inactive); in assay [18], 27.2 µM (inactive). Also, the GI50 is 40.1 µM (inactive) in assay [19] and 9.77 µM (inactive) in assay [20].

In the case of `Cc1ccc(S(=O)(=O)NNC(=O)Nc2ccc([N+](=O)[O-])cc2)cc1`, the GI50 in [1] was 46.3 µM (inactive); in assay [2], > 100 µM (inactive); in assay [3] it was 46.5 µM (inactive); in assay [4], 83.2 µM (inactive); in [5] it was 24.9 µM (inactive); in assay [6], 97.1 µM (inactive). Besides, the GI50 is 36.1 µM (inactive) in [7]; 22.1 µM (inactive) in assay [8]; 23.9 µM (inactive) in [9]; > 100 µM (inactive) in assay [10]; 24.5 µM in [11]; 42.6 µM (inactive) in [12]. Further, the GI50 is 65.8 µM (inactive) in assay [13]; 89.5 µM (inactive) in assay [14]; 47 µM (inactive) in assay [15]; 37.8 µM (inactive) in assay [16]; 50.7 µM (inactive) in assay [17]; 64.9 µM (inactive) in assay [18]. For the same molecule, the GI50 in [19] was > 100 µM (inactive); in [20], 26.2 µM (inactive).

Turning to `CCOC(=O)c1sc2ncnc(N)c2c1C`, the GI50 is 65.2 µM (inactive) in [1]; 22.8 µM (inactive) in assay [2]; 34.4 µM (inactive) in assay [3]; 68.7 µM (inactive) in assay [4]; 53.8 µM (inactive) in assay [5]; 21.4 µM (inactive) in assay [6]. For the same molecule, the GI50 in assay [7] is > 100 µM (inactive); in assay [8], > 100 µM (inactive); in [9], > 100 µM (inactive); in [10] it was 75.5 µM (inactive); in assay [11] it was 73.6 µM; in assay [12] it was 24.8 µM (inactive). Also, the GI50 in assay [13] was 35.9 µM (inactive); in [14], 65 µM (inactive); in [15], 82.4 µM (inactive); in assay [16], 24.4 µM (inactive); in assay [17], 75.5 µM (inactive); in assay [18], 40.1 µM (inactive). In addition, the values for the GI50 in assay [19] and in assay [20] were > 100 µM (inactive) and 20.4 µM (inactive), respectively.

On to `CCOP(=O)(OCC)C(Nc1ccc(Br)cc1)c1cccc([N+](=O)[O-])c1` (stereo not given), for which the GI50 in [1] is 17 µM (inactive); in [2], 14.4 µM (inactive); in assay [3] it was > 10 µM (inactive); in assay [4] it was 32.8 µM (inactive); in assay [5] it was 20.4 µM (inactive); in [6], 18.8 µM (inactive). Besides, the GI50 is 20 µM (inactive) in [7]; 15 µM (inactive) in [8]; 14.1 µM (inactive) in assay [9]; 16.7 µM (inactive) in assay [10]; 14.5 µM in assay [11]; 18.1 µM (inactive) in assay [12]. In addition, the GI50 in assay [13] is 22.1 µM (inactive); in [14] it was 17.1 µM (inactive); in assay [15], 10.8 µM (inactive); in assay [16] it was 13.3 µM (inactive); in [17] it was 19.6 µM (inactive); in assay [18] it was 17.5 µM (inactive). For the same molecule, the GI50 in assay [19] is 16.7 µM (inactive); in assay [20], 21.4 µM (inactive).

With `S=C(Nc1ccccc1)N(Cc1ccccc1)c1ccccc1`, the GI50 in [1] is 25.5 µM (inactive); in assay [2], 22.6 µM (inactive); in [3] it was 22.4 µM (inactive); in assay [4], 6.75 µM (inactive); in assay [5] it was 74.3 µM (inactive); in [6], 44.1 µM (inactive). Besides, the GI50 in [7] was 27.8 µM (inactive); in assay [8], 45.6 µM (inactive); in assay [9], 28.6 µM (inactive); in assay [10], 35.7 µM (inactive); in assay [11] it was 40.4 µM; in [12] it was 20.5 µM (inactive). Moreover, the GI50 is 24.2 µM (inactive) in [13]; 40.1 µM (inactive) in [14]; 29.3 µM (inactive) in [15]; 14.6 µM (inactive) in assay [16]; 17.7 µM (inactive) in [17]; > 100 µM (inactive) in [18]. The values for the GI50 in assay [19] and in assay [20] were 17.3 µM (inactive) and 23.7 µM (inactive), respectively.

For `C=C1[C@H](OCC(C)C)[C@@H](OC(=O)C(C)CC)[C@@H](O)C(C)(C)/C=C/[C@H](C)C(=O)[C@@]2(O)C[C@H](C)[C@H](O)[C@@H]2[C@H]1OC(=O)C(C)CC` (stereo not given in full), the GI50 was 2 µM (inactive) in [1]; 6.14 µM (inactive) in [2]; 5.22 µM (inactive) in assay [3]; 7.83 µM (inactive) in assay [4]; 4.1 µM (inactive) in assay [5]; 7.29 µM (inactive) in assay [6]. For the same molecule, the GI50 is 1.05 µM (active) in assay [7]; 4.01 µM (inactive) in [8]; 0.463 µM (active) in assay [9]; 5.73 µM (inactive) in [10]; 7.82 µM in [11]; 3.84 µM (inactive) in assay [12]. Further, the GI50 is 3.32 µM (inactive) in [13]; 2.15 µM (inactive) in assay [14]; 0.499 µM (active) in [15]; 3.28 µM (inactive) in assay [16]; 3.05 µM (inactive) in [17]; 2.84 µM (inactive) in assay [18]. Moreover, the GI50 was 4.99 µM (inactive) in assay [19] and 5.45 µM (inactive) in assay [20].

Take `Nc1nc(O)c(N)c(NCCOCP(=O)(O)O)n1`: the GI50 in assay [1], in assay [2], in assay [3], in [4], in [5] and in [6] was > 100 µM (inactive) each time. For the same molecule, the GI50 in [7] was > 84.1 µM (inactive); in assay [8], > 100 µM (inactive); in assay [9] it was > 100 µM (inactive); in [10], > 100 µM (inactive); in assay [11] it was more than 100 µM; in [12], > 100 µM (inactive). Also, the GI50 in [13], in assay [14], in assay [15], in [16], in assay [17] and in assay [18] was > 100 µM (inactive) each time. The GI50 in assay [19] and in assay [20] was > 100 µM (inactive) in each case.

For `NS(=O)(=O)c1ccc(NC(=O)Nc2cccc3ccccc23)cc1`, the GI50 was > 100 µM (inactive) in assay [1]; 30.5 µM (inactive) in assay [2]; > 100 µM (inactive) in [3]; 23.8 µM (inactive) in assay [4]; 19 µM (inactive) in [5]; 45.5 µM (inactive) in [6]. Besides, the GI50 in [7] is > 100 µM (inactive); in [8] it was 19.4 µM (inactive); in assay [9] it was 40.8 µM (inactive); in [10], 27.2 µM (inactive); in [11] it was 91.4 µM; in [12] it was 72.3 µM (inactive). In addition, the GI50 in [13] was > 100 µM (inactive); in assay [14], 86.9 µM (inactive); in assay [15] it was 16.1 µM (inactive); in assay [16], 22.5 µM (inactive); in assay [17], 23.8 µM (inactive); in [18] it was 27.6 µM (inactive). Also, the GI50 was > 100 µM (inactive) in [19] and 42.2 µM (inactive) in assay [20].
